Test results published in patent publication US20250051355A1, “COMPOUNDS, COMPOSITIONS, AND METHODS” (ACONCAGUA BIO, INC., priority 2023, published 2025).

Experiments:
[1] = target: T1, human calcitonin receptor (CTR) (Homo sapiens, UniProt P30988); test: Calcitonin receptor (CTR) cAMP Assay; assay type: cell-based; conditions: COS7-human CTR Clone #2 cells, cAMP dynamic 2 kit; read-out: Calcitonin Receptor cAMP Stimulation Activity: EC50
T1 construct: expressed in transfected cells; host or cells: COS-7 (COS7-human CTR Clone #2)
T1 sequence (P30988 25-474): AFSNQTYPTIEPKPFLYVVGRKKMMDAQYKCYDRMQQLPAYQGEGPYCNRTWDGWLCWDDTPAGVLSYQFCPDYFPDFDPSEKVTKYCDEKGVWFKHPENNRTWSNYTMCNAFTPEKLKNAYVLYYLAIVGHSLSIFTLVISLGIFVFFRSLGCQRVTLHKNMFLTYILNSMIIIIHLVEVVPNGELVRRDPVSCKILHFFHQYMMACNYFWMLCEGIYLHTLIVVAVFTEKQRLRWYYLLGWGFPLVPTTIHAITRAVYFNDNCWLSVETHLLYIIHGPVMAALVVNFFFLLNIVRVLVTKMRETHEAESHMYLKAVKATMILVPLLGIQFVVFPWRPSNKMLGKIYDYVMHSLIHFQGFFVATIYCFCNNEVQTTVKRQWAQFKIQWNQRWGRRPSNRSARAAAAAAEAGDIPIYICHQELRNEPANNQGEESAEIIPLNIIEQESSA
Outline: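 COS-7 cells stably expressing human CTR (2000 cells/well) treated with 4-fold serially diluted compounds in HBSS/20 mM HEPES/0.5 mM IBMX/0.1% casein, 30 min at 37° C. cAMP quantified by HTRF (cAMP-d2 plus anti-cAMP cryptate, 1 h RT), fluorescence read at 665 and 615 nm.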

[2] = target: human calcitonin receptor (CTR) and RAMP3 (AMY3) (Homo sapiens, UniProt O60896+P30988); test: Amylin Receptor cAMP Assay II; assay type: cell-based; conditions: COS-7/AMY3 cells, cAMP dynamic 2 kit, read-out: Amylin Receptor cAMP Stimulation Activity: EC50
Chain of human calcitonin receptor (CTR) and RAMP3 (AMY3) (O60896 24-148, one chain of several): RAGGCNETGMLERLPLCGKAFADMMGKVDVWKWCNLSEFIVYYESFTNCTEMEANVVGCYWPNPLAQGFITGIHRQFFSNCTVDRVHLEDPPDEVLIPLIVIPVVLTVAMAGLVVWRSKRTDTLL
Outline: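 COS-7 cells stably co-expressing human CTR and RAMP3 (AMY3) were treated with 4-fold serially diluted compounds at 2000 cells/well in HBSS with 20 mM HEPES, 0.5 mM IBMX and 0.1% casein for 30 min at 37 °C. cAMP was measured by HTRF (cAMP-d2 plus anti-cAMP cryptate, 1 h at RT) with reads at 665/615 nm.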

Compound | EC50 [1] | EC50 [2]
Cc1nnc(-c2c(CCC34CCC(CC3)OC4)nc3c(c2-c2cc4ccnc(N[C@@H]5CCc6ncccc65)c4s2)S(=O)(=O)CC3C(C)C)o1 (stereo partly drawn) [Compound 116, N—(R)-4-aza-1-indanyl(2-[3-isopropyl-6-(5-methyl-1,3,4-oxadiazol-2-yl)-5-(2-(2-oxabicyclo[2.2.2]oct-4-yl)ethyl}-1,1-dioxo-1λ^6-thia-4-aza-7-indanyl]-1-thia-6-aza-7-indenyl}amine] | 5.02 nM | 216 nM
CC(C)C1CS(=O)(=O)c2c1nc(CCC1CCOCC1)c(-c1nnc(CN(C)C)o1)c2-c1cc2ccnc(N[C@@H]3CCc4ncccc43)c2s1 (stereo partly drawn) [Compound 117, 7-(7-[(R)-4-aza-1-indanylamino]-1-thia-6-aza-2-indenyl}-6-(5-[(dimethylamino)methyl]-1,3,4-oxadiazol-2-yl}-3-isopropyl-5-[2-(tetrahydro-2H-pyran-4-yl)ethyl]-1λ^8-thia-4-aza-1,1-indandione] | 9.93 nM | 257 nM
Cc1ccnc(-c2c(CCC3CCOCC3)nc3c(c2-c2cc4ccnc(N[C@@H]5CCc6ncccc65)c4s2)S(=O)(=O)CC3C(C)C)c1 (stereo partly drawn) [Compound 118, N—(R)-4-aza-1-indanyl(2-(3-isopropyl-6-(4-methyl-2-pyridyl)-1,1-dioxo-5-[2-(tetrahydro-2H-pyran-4-yl)ethyl]-11′-thia-4-aza-7-indanyl}-1-thia-6-aza-7-indenyl)amine] | 72.8 nM | 449 nM
CC(C)C1CS(=O)(=O)c2c1nc(CCC1CCOCC1)c(-c1nnc[nH]1)c2-c1cc2ccnc(N[C@@H]3CCc4ncccc43)c2s1 (stereo partly drawn) [Compound 119, 7-(7-(((R)-6,7-dihydro-5H-cyclopenta[b]pyridin-5-yl)amino)thieno[2,3-c]pyridin-2-yl)-3-isopropyl-5-(2-(tetrahydro-2H-pyran-4-yl)ethyl)-6-(4H-1,2,4-triazol-3-yl)-2,3-dihydrothieno[3,2-b]pyridine 1,1-dioxide] | 11.6 nM | 68.3 nM
CC(C)C1CS(=O)(=O)c2c1nc(CCC1CCOCC1)c(-c1nnc(N)o1)c2-c1cc2ccnc(N[C@@H]3CCc4ncccc43)c2s1 (stereo partly drawn) [Compound 120, 7-{7-[(R)-4-aza-1-indanylamino]-1-thia-6-aza-2-indenyl}-6-(5-amino-1,3,4-oxadiazol-2-yl)-3-isopropyl-5-[2-(tetrahydro-2H-pyran-4-yl)ethyl]-1λ^6-thia-4-aza-1,1-indandione] | 10.2 nM | 55.3 nM
COc1noc(-c2c(CCC3CCOCC3)nc3c(c2-c2cc4ccnc(N[C@@H]5CCc6ncccc65)c4s2)S(=O)(=O)CC3C(C)C)n1 (stereo partly drawn) [Compound 121, N—(R)-4-aza-1-indanyl(2-(3-isopropyl-6-(3-methoxy-1,2,4-oxadiazol-5-yl)-1,1-dioxo-5-[2-(tetrahydro-2H-pyran-4-yl)ethyl]-1λ^6-thia-4-aza-7-indanyl}-1-thia-6-aza-7-indenyl)amine] | 49.2 nM | 272 nM
Cc1nnc(-c2c(CCC3CCOCC3)nc3c(c2-c2ccn4c(Cc5ccc(F)c(F)c5)cnc4c2)S(=O)(=O)CC3C(C)C)o1 (stereo not drawn) [Compound 122, 7-(3-[(3,4-difluorophenyl)methyl]-1,3a-diaza-6-indenyl}-3-isopropyl-6-(5-methyl-1,3,4-oxadiazol-2-yl)-5-[2-(tetrahydro-2H-pyran-4-yl)ethyl]-1λ^6-thia-4-aza-1,1-indandione] | 49.2 nM | 1540 nM
COc1nnc(-c2c(CCC3CCOCC3)nc3c(c2-c2cc4ccnc(N[C@@H]5CCc6ncccc65)c4s2)S(=O)(=O)CC3C(C)C)o1 (stereo partly drawn) [Compound 123, N—(R)-4-aza-1-indanyl(2-(3-isopropyl-6-(5-methoxy-1,3,4-oxadiazol-2-yl)-1,1-dioxo-5-[2-(tetrahydro-2H-pyran-4-yl)ethyl]-1λ^6-thia-4-aza-7-indanyl}-1-thia-6-aza-7-indenyl)amine] | 135 nM | 4380 nM
Cc1nnc(-c2c(CCC3CCOCC3)nc3c(c2-c2cnc4c(ccn4Cc4ccc(C#N)cn4)c2)C(=O)N2CCC[C@@H]32)o1 [Compound 124, 6-[(5-((2S)-10-(5-methyl-1,3,4-oxadiazol-2-yl)-7-oxo-11-[2-(tetrahydro-2H-pyran-4-yl)ethyl]-6,12-diazatricyclo[6.4.0.0,^1I]dodeca-1(12),8,10-trien-9-yl}-1H-1,7-diazainden-1-yl)methyl]nicotinonitrile] | 216 nM | 2700 nM
Cc1nnc(-c2c(CCC3CCOCC3)nc3c(c2-c2ccc4c(c2)oc(=O)n4Cc2ccc(C#N)cn2)C(=O)N2CCC[C@@H]32)o1 [Compound 125, 6-[(6-((2S)-10-(5-methyl-1,3,4-oxadiazol-2-yl)-7-oxo-11-[2-(tetrahydro-2H-pyran-4-yl)ethyl]-6,12-diazatricyclo[6.4.0.0^2,6,]dodeca-1(12),8,10-trien-9-yl}-2-oxo-1,3-benzoxazol-3-yl)methyl]nicotinonitrile] | 6.63 nM | 174 nM
Cc1nnc(-c2c(CCC3CCOCC3)nc3c(c2-c2cnc4c(ccn4Cc4ccc(C#N)c(F)c4)c2)S(=O)(=O)N2CCC[C@@H]32)o1 [Compound 126, 4-[(5-{(2S)-10-(5-methyl-1,3,4-oxadiazol-2-yl)-7,7-dioxo-11-[2-(tetrahydro-2H-pyran-4-yl)ethyl]-7λ^6-thia-6,12-diazatricyclo[6.4.0.0^2,6]dodeca-1(12),8,10-trien-9-yl}-1H-1,7-diazainden-1-yl)methyl]-2-fluorobenzonitrile] | 11.7 nM | 128 nM
Cc1nnc(-c2c(CCC3CCOCC3)nc3c(c2-c2ccc4c(c2)oc(=O)n4Cc2ccc(C#N)cn2)S(=O)(=O)N2CCC[C@@H]32)o1 [Compound 127, 6-[(6-{(2S)-10-(5-methyl-1,3,4-oxadiazol-2-yl)-7,7-dioxo-11-[2-(tetrahydro-2H-pyran-4-yl)ethyl]-7λ^6-thia-6,12-diazatricyclo[6.4.0.0^2,6]dodeca-1(12),8,10-trien-9-yl}-2-oxo-1,3-benzoxazolidin-3-yl)methyl]nicotinonitrile] | 3.86 nM | 209 nM
Cc1nnc(-c2c(CCC3CCOCC3)nc3c(c2-c2cnc4c(ccn4Cc4ccc(C#N)cn4)c2)S(=O)(=O)CC3C(C)C)o1 (stereo not drawn) [Compound 128, 6-[(5-(3-isopropyl-6-(5-methyl-1,3,4-oxadiazol-2-yl)-1,1-dioxo-5-[2-(tetrahydro-2H-pyran-4-yl)ethyl]-1-thia-4-aza-7-indanyl}-1H-1,7-diazainden-1-yl)methyl]nicotinonitrile] | 120 nM | 1540 nM
Cc1nnc(-c2c(CCC3CCOCC3)nc3c(c2-c2ccc4c(c2)oc(=O)n4Cc2ccc(C#N)cn2)S(=O)(=O)CC3C(C)C)o1 (stereo not drawn) [Compound 129, 6-[(6-(3-isopropyl-6-(5-methyl-1,3,4-oxadiazol-2-yl)-1,1-dioxo-5-[2-(tetrahydro-2H-pyran-4-yl)ethyl]-1λ^6-thia-4-aza-7-indanyl}-2-oxo-1,3-benzoxazol-3-yl)methyl]nicotinonitrile] | 4.46 nM | 211 nM
Cc1nnc(-c2c(CCC3CCOCC3)nc3c(c2-c2ccc4nn(Cc5ccc(C#N)c(F)c5)cc4c2)C(=O)N2CCOC[C@@H]32)o1 [Compound 130, 4-[(5-((4aR,9aR)-7-(5-methyl-1,3,4-oxadiazol-2-yl)-9-oxo-6-[2-(tetrahydro-2H-pyran-4-yl)ethyl]-1,2,4,4a-tetrahydro-9H-3-oxa-5,9a-diazafluoren-8-yl}-2H-indazol-2-yl)methyl]-2-fluorobenzonitrile] | 186 nM | 2310 nM
